Measurements published in PMC7391767, “Molecular mechanisms underlying menthol binding and activation of TRPM8 ion channel” (Nature Communications, 2020).
Values joined by “and” are separate entries in the source; they are usually repeats but may differ in a detail not shown here. Equal entries are not always repeated. “Also recorded” adds a separate entry of the source. Where two headings read alike, the source gives them in different places.

Columns and labels:
Assay type in all cases: cell-based
[1] = target: T1, wild-type TRPM8 (Mus musculus, UniProt Q8R4D5); assay: whole-cell patch-clamp recording of ligand activation
T1 construct: expressed in transfected cells; host or cells: HEK293T
T1 sequence (Q8R4D5 whole entry): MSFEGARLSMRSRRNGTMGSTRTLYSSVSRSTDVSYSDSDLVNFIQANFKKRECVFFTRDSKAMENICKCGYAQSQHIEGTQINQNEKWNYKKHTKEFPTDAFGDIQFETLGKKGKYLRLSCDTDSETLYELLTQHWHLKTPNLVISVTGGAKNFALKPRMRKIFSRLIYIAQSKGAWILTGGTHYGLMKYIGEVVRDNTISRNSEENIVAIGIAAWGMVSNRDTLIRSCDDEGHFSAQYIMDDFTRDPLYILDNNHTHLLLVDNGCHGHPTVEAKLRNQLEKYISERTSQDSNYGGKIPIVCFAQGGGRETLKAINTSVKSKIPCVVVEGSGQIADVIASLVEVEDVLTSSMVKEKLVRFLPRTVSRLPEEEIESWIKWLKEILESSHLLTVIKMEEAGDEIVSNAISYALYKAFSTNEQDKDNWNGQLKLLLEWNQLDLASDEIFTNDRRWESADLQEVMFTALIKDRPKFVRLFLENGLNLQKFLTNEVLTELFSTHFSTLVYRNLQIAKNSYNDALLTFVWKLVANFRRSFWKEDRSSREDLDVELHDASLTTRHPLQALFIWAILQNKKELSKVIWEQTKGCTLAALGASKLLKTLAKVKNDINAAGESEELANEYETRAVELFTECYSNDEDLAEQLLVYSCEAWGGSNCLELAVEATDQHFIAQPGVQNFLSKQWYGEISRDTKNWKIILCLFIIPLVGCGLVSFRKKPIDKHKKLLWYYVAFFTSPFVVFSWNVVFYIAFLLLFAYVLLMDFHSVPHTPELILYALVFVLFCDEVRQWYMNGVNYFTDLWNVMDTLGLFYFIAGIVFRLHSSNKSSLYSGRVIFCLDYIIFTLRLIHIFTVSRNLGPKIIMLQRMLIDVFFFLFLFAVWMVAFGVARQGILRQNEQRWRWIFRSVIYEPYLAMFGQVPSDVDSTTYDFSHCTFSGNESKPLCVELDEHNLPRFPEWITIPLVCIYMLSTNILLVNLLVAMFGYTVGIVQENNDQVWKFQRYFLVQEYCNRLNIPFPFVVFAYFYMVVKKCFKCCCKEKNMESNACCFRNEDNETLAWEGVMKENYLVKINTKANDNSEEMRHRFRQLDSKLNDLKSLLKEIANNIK
Experimental: Murine TRPM8 was used in this study. Point mutations were made by Fast Mutagenesis Kit V2 (SBS Genetech). Primers used to generate point mutations are summarized in Supplementary Table 2.
Cells were transiently transfected with cDNA constructs by Lipofectamine 3000 (Life Technologies) following the manufacturer’s protocol. Patch-clamp recordings were performed 1–2 days after transfection.
(§1) Patch-clamp recordings were performed with a HEKA EPC10 amplifier controlled by PatchMaster software (HEKA). Whole-cell recordings were performed at ±80 mV. Patch pipettes were prepared from borosilicate glass and fire-polished to resistance of ~4 MΩ. For whole-cell recording, serial resistance was compensated by 60%. For single-channel recordings, patch pipettes were fire-polished to a higher resistance of 6-to-10 MΩ and then recorded in the inside-out configuration. To maximize the chance of obtaining a patch with only one channel, single-channel recordings were performed about 8 h after transfection. A solution with 130 mM NaCl, 10 mM glucose, 0.2 mM EDTA, and 3 mM HEPES (pH 7.2) was used in both bath and pipette for either whole-cell or single-channel recordings. Membrane potential was clamped at +80 mV for single-channel recordings. Current was sampled at 10 kHz and filtered at 2.9 kHz. All recordings were performed at room temperature (22 °C) with the maximum variation of 1 °C.
(§2) Ligands such as menthol and its analogs were perfused to membrane patch by a gravity-driven system (RSC-200, Bio-Logic). Bath and ligand solution were delivered through separate tubes to minimize the mixing of solutions. Patch pipette was placed in front of the perfusion tube outlet.
Data from whole-cell recordings were analyzed in Igor Pro version 6.1 (WaveMatrix). EC50 values were derived from fitting a Hill equation to the concentration–response relationship. […] To distinguish these possibilities, dissociation constant (Kd) for ligand binding was estimated assuming the following gating scheme:1 C0↔KdC1↔LO, where L is the equilibrium constant for the final closed-to-open transition.

[2] = target: T2, TRPM8 L843I (Mus musculus, UniProt Q8R4D5, L843I); assay: whole-cell patch-clamp and thermodynamic mutant cycle analysis
T2 construct: expressed in transfected cells; host or cells: HEK293T
T2 sequence (Q8R4D5 whole entry L843I): as the sequence (Q8R4D5 whole entry) above, with L843I counted along it
Experimental: (§3) Murine TRPM8 was used in this study. Point mutations were made by Fast Mutagenesis Kit V2 (SBS Genetech). Primers used to generate point mutations are summarized in Supplementary Table 2. All mutations were confirmed by sequencing.
(§4) HEK293T cells purchased from Kunming Cell Bank, Kunming Institute of Zoology, Chinese Academy of Sciences (ATCC, CRL-3216) were cultured in Dulbecco’s modified Eagle’s medium supplemented with 20 mM L-glutamine and 10% fetal bovine serum. Cells were transiently transfected with cDNA constructs by Lipofectamine 3000 (Life Technologies) following the manufacturer’s protocol. Patch-clamp recordings were performed 1–2 days after transfection.
as §1, §2
(§5) Data from whole-cell recordings were analyzed in Igor Pro version 6.1 (WaveMatrix). EC50 values were derived from fitting a Hill equation to the concentration–response relationship. Changes in EC50 by point mutation may be caused by either perturbation of ligand bind or channel gating or both. To distinguish these possibilities, dissociation constant (Kd) for ligand binding was estimated assuming the following gating scheme:1 C0↔KdC1↔LO, where L is the equilibrium constant for the final closed-to-open transition.
(§6) To perform thermodynamic cycle analysis, Kd values of four channel-ligand combinations (WT channel, menthol: Kd _1; Mutant channel, menthol: Kd _2; WT channel, menthol analog: Kd _3; Mutant channel, menthol analog: Kd _4) were determined separately. The strength of coupling was determined by the coupling energy (kT multiplied by LnΩ, where k is the Boltzmann constant and T is temperature in Kelvin). LnΩ was calculated by Eq. (2) as[51]2 LnΩ=LnKd_1⋅Kd_4/Kd_2⋅Kd_3.

[3] = target: T3, TRPM8 L843V (Mus musculus, UniProt Q8R4D5, L843V); assay: as above
T3 construct: expressed in transfected cells; host or cells: HEK293T
T3 sequence (Q8R4D5 whole entry L843V): as the sequence (Q8R4D5 whole entry) above, with L843V counted along it
Experimental: as §3, §4, §1, §2, §5, §6

[4] = target: T4, TRPM8 F839A (Mus musculus, UniProt Q8R4D5, F839A); assay: as above
T4 construct: expressed in transfected cells; host or cells: HEK293T
T4 sequence (Q8R4D5 whole entry F839A): as the sequence (Q8R4D5 whole entry) above, with F839A counted along it
Experimental: as §3, §4, §1, §2, §5, §6

[5] = target: T5, TRPM8 L843A (Mus musculus, UniProt Q8R4D5, L843A); assay: as above
T5 construct: expressed in transfected cells; host or cells: HEK293T
T5 sequence (Q8R4D5 whole entry L843A): as the sequence (Q8R4D5 whole entry) above, with L843A counted along it
Experimental: as §3, §4, §1, §2, §5, §6

[6] = target: T6, TRPM8 V775A (Mus musculus, UniProt Q8R4D5, V775A); assay: as above
T6 construct: expressed in transfected cells; host or cells: HEK293T
T6 sequence (Q8R4D5 whole entry V775A): as the sequence (Q8R4D5 whole entry) above, with V775A counted along it
Experimental: as §3, §4, §1, §2, §5, §6

[7] = target: T7, TRPM8 I846V (Mus musculus, UniProt Q8R4D5, I846V); assay: as above
T7 construct: expressed in transfected cells; host or cells: HEK293T
T7 sequence (Q8R4D5 whole entry I846V): as the sequence (Q8R4D5 whole entry) above, with I846V counted along it
Experimental: as §3, §4, §1, §2, §5, §6

[8] = target: T8, TRPM8 Y745F (Mus musculus, UniProt Q8R4D5, Y745F); assay: as above
T8 construct: expressed in transfected cells; host or cells: HEK293T
T8 sequence (Q8R4D5 whole entry Y745F): as the sequence (Q8R4D5 whole entry) above, with Y745F counted along it
Experimental: as §3, §4, §1, §2, §5, §6

[9] = R(kcal/K/mol) 1.99E-03, T 2.97E+02, menthol vs labelled analog
[10] = mutant cycle menthol vs labelled analog

**Q.** OC1CCCCC1 [cyclohexanol] was tested. Which “activation of TRPM8 channel” value ([1]; up to 5 mM) did it give?
**A.** failed to open; also recorded: cannot activate

**Q.** What does the source list for C=C(C)[C@@H]1CC[C@@H](C)C[C@H]1O [isopulegol]?
**A.** L (equilibrium constant between closed and open states upon ligand binding), Ave ([1]; WT): 2.233; Ratio X1 (Kd menthol / Kd labelled analog) ([1]; WT): 0.9034; concentration–response curve value, ave ([1]; WT, 100 microM): 0.06552; concentration–response curve value, ave ([1]; WT, 200 microM): 0.185; concentration–response curve value, ave ([1]; WT, 500 microM): 0.4757; concentration–response curve value, single recording ([1]; WT, 500 microM): 0.4347 and 0.5954 and 0.3968; concentration–response curve value, ave ([1]; WT, 1000 microM): 0.5625; concentration–response curve value, single recording ([1]; WT, 1000 microM): 0.5176 and 0.6462 and 0.5237; concentration–response curve value, ave ([1]; WT, 5000 microM): 0.6452; concentration–response curve value, single recording ([1]; WT, 5000 microM): 0.5498 and 0.7014 and 0.6843; concentration–response curve value, ave ([1]; WT, 10000 microM): 0.6337; concentration–response curve value, single recording ([1]; WT, 10000 microM): 0.5212 and 0.6983 and 0.6816; Kd ([1]; WT, calculated from concentration–response curves (EC50 and Po max), read-out: Kd, Ave): 1050 µM; Kd ([1]; WT, read-out: Kd, single recording): 1320 µM and 824 µM and 542 µM and 812 µM and 1460 µM and 617 µM and 1260 µM and 1590 µM; Ratio X2 (Kd menthol / Kd labelled analog) [2]: 0.229; Energy, Ave [2, 9]: 0.81; Omega(X1/X2) ([2]; menthol vs labelled analog): 3.95; Coupling Energy [2, 10]: 1.37 kT; Ratio X2 (Kd menthol / Kd labelled analog) [3]: 0.4038; Energy, Ave [3, 9]: 0.48; Omega(X1/X2) ([3]; menthol vs labelled analog): 2.24; Coupling Energy [3, 10]: 0.81 kT; Ratio X2 (Kd menthol / Kd labelled analog) [4]: 1.37; Energy, Ave [4, 9]: -0.25; Omega(X1/X2) ([4]; menthol vs labelled analog): 0.66; Coupling Energy [4, 10]: 0.42 kT; Ratio X2 (Kd menthol / Kd labelled analog) [5]: 34.2166; Energy, Ave [5, 9]: -2.14; Omega(X1/X2) ([5]; menthol vs labelled analog): 0.0264; Coupling Energy [5, 10]: 3.63 kT; Ratio X2 (Kd menthol / Kd labelled analog) [6]: 2.4876; Energy, Ave [6, 9]: -0.60; Omega(X1/X2) ([6]; menthol vs labelled analog): 0.36; Coupling Energy [6, 10]: 1.01 kT; L (equilibrium constant between closed and open states upon ligand binding), Ave [7]: 41.287; Ratio X2 (Kd menthol / Kd labelled analog) [7]: 0.02928; concentration–response curve value, ave ([7]; 100 microM): 0.5053; concentration–response curve value, single recording ([7]; 100 microM): 0.5194 and 0.5746 and 0.5283 and 0.3989; concentration–response curve value, ave ([7]; 200 microM): 0.8162; concentration–response curve value, single recording ([7]; 200 microM): 0.818 and 0.8632 and 0.783 and 0.8004; concentration–response curve value, ave ([7]; 500 microM): 0.9296; concentration–response curve value, single recording ([7]; 500 microM): 0.9586 and 0.8698 and 0.9387 and 0.9513; concentration–response curve value, ave ([7]; 1000 microM): 0.9432; concentration–response curve value, single recording ([7]; 1000 microM): 0.9846 and 0.8706 and 0.9587 and 0.9591; concentration–response curve value, ave ([7]; 5000 microM): 0.9595; concentration–response curve value, single recording ([7]; 5000 microM): 0.9671 and 0.952; Energy, Ave [7, 9]: 2.02; Kd ([7]; calculated from concentration–response curves, read-out: Kd, Ave): 4090 µM; Omega(X1/X2) ([7]; menthol vs labelled analog): 30.85; Coupling Energy [7, 10]: 3.43 kT; Ratio X2 (Kd menthol / Kd labelled analog) [8]: 1.55E+00; Energy, Ave [8, 9]: -0.32; Omega(X1/X2) ([8]; menthol vs labelled analog): 0.58; Coupling Energy [8, 10]: 0.54 kT
